For orientation: IC50 means the concentration that inhibits the measured activity by half.

Consider 1 compound from patent publication US20230034696A1, “EGFR INHIBITORS” (Hoffmann-La Roche Inc., priority 2019, published 2023).

The target in the experiment is T1, EGFR TMLRCS (BaF3-TMLRCS cell line) (Homo sapiens, UniProt P00533, C797S/L858R/T790M).
T1 construct: host or cells: BaF3 (murine pro-B cells) engineered to express EGFR TMLRCS
Kind of experiment: HTRF Phospho EGFR TMLRCS assay (cellular). The experiment is classed as cell-based. The settings on record: BaF3-TMLRCS cells, 4 hours incubation. As for the experimental part: HTRF Phospho EGFR TMLRCS Assay (Cellular)
BaF3-TMLRCS cell line were obtained from Crownbio (San Diego, CA, USA). Cells were maintained at 37° C., 5% CO2 in RPMI ATCC (Gibco 31870) + 2 mM Glutamine + 0.5 µg/ml Puromycin supplemented with 10% fetal bovine serum (FBS) (Gibco).
Cells are transferred as above to Greiner Bio-One, Nr. 784-08 micro-titerplate at 20000 cells/well in 12.5 µl of growth medium/well after the plates had been pre-filled with 12.5 nl of DMSO solutions of the to be tested compound (in dose response) or DMSO only. After spinning the plates at 300 × g for 30 seconds the cells were incubated for 4 hours at 37C, 5% CO2, 95% humidity. The cells were lysed by adding to the compound mix 4 µl/well of the supplemented lysis buffer (Cis-bio, Phospho-EGFR HTRF kit, 64EG1PEH), followed by incubation for 30 min at room temperature with shaking (400 rpm). The plates were then frozen and stored overnight at -80C. […] The lidded plates were then incubated for 4 h at room temperature before reading the fluorescence emission at 616 and 665 nm using an Envision reader (Perkin Elmer). Data was analyzed in similar fashion as above using the normalized ratio of the 665 to 616 signals multiplied by 10000.
For orientation: Time-resolved FRET reads energy transfer from a long-lived donor to a nearby acceptor.

T1 sequence (P00533 25-1210 T790M/C797S/L858R): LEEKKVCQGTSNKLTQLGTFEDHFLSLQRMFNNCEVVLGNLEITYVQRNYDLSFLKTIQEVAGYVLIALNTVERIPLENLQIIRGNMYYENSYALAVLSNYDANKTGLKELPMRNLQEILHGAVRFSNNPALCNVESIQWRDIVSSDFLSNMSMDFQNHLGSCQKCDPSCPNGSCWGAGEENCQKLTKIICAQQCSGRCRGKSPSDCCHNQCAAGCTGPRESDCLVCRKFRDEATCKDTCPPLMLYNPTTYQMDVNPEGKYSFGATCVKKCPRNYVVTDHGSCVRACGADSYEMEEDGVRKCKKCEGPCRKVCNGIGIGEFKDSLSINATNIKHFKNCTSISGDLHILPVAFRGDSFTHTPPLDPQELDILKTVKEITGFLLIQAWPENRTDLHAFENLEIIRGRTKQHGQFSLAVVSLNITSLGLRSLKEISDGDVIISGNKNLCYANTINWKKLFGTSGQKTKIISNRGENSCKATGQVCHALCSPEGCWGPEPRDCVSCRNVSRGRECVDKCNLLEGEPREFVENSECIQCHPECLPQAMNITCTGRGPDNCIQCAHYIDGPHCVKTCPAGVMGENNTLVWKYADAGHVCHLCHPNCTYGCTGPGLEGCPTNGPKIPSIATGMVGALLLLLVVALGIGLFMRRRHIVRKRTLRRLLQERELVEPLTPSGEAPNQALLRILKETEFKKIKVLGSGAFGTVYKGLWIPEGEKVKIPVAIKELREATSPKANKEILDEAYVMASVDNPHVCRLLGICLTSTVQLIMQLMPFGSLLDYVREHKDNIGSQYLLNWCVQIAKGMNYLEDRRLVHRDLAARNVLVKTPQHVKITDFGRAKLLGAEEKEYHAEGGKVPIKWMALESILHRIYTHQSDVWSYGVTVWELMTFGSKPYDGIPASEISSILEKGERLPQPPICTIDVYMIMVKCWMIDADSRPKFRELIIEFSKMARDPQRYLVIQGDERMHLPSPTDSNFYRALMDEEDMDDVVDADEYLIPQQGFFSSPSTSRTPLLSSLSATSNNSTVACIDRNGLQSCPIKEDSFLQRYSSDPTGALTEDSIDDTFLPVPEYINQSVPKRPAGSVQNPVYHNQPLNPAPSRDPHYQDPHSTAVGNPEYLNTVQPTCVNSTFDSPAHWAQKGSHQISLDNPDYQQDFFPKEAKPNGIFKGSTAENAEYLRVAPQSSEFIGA

Regarding `O=C(Nc1nccs1)C(c1ncn2c1CCC2)N1Cc2c(Cl)cc(C#Cc3ccc(CN4CCC(CO)CC4)cc3)cc2C1=O` (racemic) [Example 1, 2-[4-chloro-6-[2-[4-[[4-(hydroxymethyl)-1-piperidyl]methyl]phenyl]ethynyl]-1-oxo-isoindolin-2-yl]-2-(6,7-dihydro-5H-pyrrolo[1,2-c]imidazol-1-yl)-N-thiazol-2-yl-acetamide], the IC50 was 3 nM.
